Test results taken from patent US5521156A, “Cyclic neurokinin A antagonists” (priority 1994, dated 1996).
Where a SMILES comes first, the peptide text is derived from it. [ ]: non-standard residue; d: D form.

Experiments:
mice = settings: mouse, in vivo
Procedure: The analgesic potential of the compounds of this invention was measured using a modification of the method of Whittle (Br. J. Pharmacol. 22:2246, 1964). Groups of 5-10 male mice received an intrathecal injection of cyclo[Tyr-trp-Leu-Arg-Trp-Gly] SEQ. ID 6 (0.013-4μg) or ethanol/saline vehicle in a volume of 5 μl. After 5 minutes, mice received an intraperitoneal injection of 0.4 ml acetic acid (0.25% v/v). […] To calculate an ED50 (dose producing analgesia in 50% of the mice), four or more doses of compound were tested and the results subjected to quantal analysis with an appropriate computer program.

[1] = molecular target: T1, bovine stomach NK-2 receptor (Bos taurus, UniProt P05363); experiment: Antagonism of NK-2 receptor mediated phosphatidylinositol turnover in SKLKB82#3 cells; assay type: cell-based; settings: Schild regression vs NKA, 95% confidence limits 8.22 to 8.69, read-out: pA2 (converted)
T1 construct: expressed in transfected cells; host or cells: SKLKB82#3 (mouse fibroblast cell line)
T1 sequence (P05363 1-384): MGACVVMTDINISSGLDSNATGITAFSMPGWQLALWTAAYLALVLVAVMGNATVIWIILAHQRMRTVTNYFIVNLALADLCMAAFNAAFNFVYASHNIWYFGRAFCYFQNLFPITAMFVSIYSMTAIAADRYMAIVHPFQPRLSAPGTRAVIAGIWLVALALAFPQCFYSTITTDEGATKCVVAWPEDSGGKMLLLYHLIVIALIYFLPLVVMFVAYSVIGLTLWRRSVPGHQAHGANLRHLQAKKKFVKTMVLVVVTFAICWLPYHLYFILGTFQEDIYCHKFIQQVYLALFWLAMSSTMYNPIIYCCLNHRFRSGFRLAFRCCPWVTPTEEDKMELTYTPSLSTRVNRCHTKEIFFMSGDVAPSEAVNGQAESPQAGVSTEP
Procedure: Cultured SKLKB82#3 (bovine stomach NK-2 receptor transfected into mouse fibroblast cell line) cells were seeded onto 24-well plates at 125,000 cells/well, two-three days prior to assay. Cells were loaded with 0.5 ml of 0.2 μM myo[2-^3 H(N)] inositol (American Radiolabeled Chemicals Inc., specific activity, 20 Ci/mmol) 20-24 hrs prior to assay. Cultured cells were maintained at 37° C. in a 5% CO2 environment. On the day of the assay, media was aspirated and the cells incubated in D-MEM/F-12 media containing 40 μg/ml bacitracin, 4 μg/ml each of leupeptin and chymostatin, 0.1% bovine serum albumin and 1 μM thiorphan and 10 mM LiCl. After 15 min., cyclo[Tyr-trp-Leu-Arg-Trp-Gly] SEQ. ID 6 (concentration range 0.3 nM -10 μM) was added to the cells in a volume of 0.1 ml. […] The third elution was collected and counted in 9 ml scintillation fluid. A 50 μl aliquot of the organic (bottom) phase was removed, dried in a scintillation vial and counted in 7 ml scintillation fluid.
The ratio of DPM in the aqueous phase aliquot (total inositol phosphates) to the DPM in the 50 μl organic phase aliquot (total [^3 H]-inositol incorporated) was calculated for each sample. Data are expressed as a percent of agonist-induced accumulation of [3H]-inositol phosphates over basal leTels. […]

## CC(C)C[C@@H]1NC(=O)[C@@H](Cc2c[nH]c3ccccc23)NC(=O)[C@H](Cc2ccc(O)cc2)NC(=O)CNC(=O)[C@H](Cc2c[nH]c3ccccc23)NC(=O)[C@H](CCCNC(=N)N)NC1=O [cyclo[Tyr--trp--Leu--Arg--Trp--Gly], cyclo[Tyr-trp-Leu-Arg-Trp-Gly]] (cyclo(GY[dW]LRW))
mice
  ED50 (dose producing analgesia in 50% of the mice): 0.18 µg
[1]
  Kb: 3.55 nM
